Where two headings read alike, the source gives them in different places. Blank lines part the entries; values can stand above or below the compound they belong to.
Experiments:
Assay in all cases: Ambit kinase profiling, competition binding
[1] = biological target: T1, EPHB3 (Homo sapiens, UniProt P54753)
T1 construct: purchased Ambit Biosciences (KINOMEscan)
T1 sequence (P54753 34-998): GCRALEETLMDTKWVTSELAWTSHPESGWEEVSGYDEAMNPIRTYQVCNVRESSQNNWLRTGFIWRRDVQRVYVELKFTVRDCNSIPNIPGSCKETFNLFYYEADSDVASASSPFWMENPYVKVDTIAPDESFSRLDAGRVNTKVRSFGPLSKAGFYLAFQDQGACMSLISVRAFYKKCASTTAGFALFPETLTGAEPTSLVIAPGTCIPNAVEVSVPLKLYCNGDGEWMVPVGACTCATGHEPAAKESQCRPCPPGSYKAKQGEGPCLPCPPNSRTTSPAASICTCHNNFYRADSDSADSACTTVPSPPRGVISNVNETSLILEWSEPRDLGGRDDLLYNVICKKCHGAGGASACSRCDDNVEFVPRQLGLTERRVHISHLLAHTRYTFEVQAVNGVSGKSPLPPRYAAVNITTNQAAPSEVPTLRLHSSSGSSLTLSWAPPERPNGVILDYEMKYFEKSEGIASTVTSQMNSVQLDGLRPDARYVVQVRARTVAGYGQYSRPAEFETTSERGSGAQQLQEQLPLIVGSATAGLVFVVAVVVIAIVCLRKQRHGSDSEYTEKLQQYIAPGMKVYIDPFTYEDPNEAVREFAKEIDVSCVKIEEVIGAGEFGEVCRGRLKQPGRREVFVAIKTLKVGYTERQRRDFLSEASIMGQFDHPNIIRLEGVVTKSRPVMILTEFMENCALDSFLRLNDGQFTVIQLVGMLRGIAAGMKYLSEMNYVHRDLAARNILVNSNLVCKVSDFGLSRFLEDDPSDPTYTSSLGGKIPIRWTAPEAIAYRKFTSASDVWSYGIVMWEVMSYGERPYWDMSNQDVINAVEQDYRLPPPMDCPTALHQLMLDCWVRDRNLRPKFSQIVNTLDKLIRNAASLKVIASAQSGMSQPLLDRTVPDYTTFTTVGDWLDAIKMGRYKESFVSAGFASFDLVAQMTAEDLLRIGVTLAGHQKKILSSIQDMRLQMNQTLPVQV
Method: (§1) Also included in the kinase profile are four isoforms of PKC (δ, ε, η, θ) and eight isoforms of CAMKs (CAMKIα, δ, γ; CAMKIIα, β, δ, γ; CAMK4).
(§2) The global kinase profiling experiment was performed by Ambit Biosciences.

[2] = biological target: T2, EGFR(L858R) (Homo sapiens, UniProt P00533, L858R); conditions: for % Competition: 10 µM
T2 construct: purchased Ambit Biosciences (KINOMEscan)
Method: as §1, §2

[3] = biological target: T3, SLK (Homo sapiens, UniProt Q9H2G2)
T3 construct: purchased Ambit Biosciences (KINOMEscan)
Method: as §1, §2

[4] = biological target: T4, CLK4 (Homo sapiens, UniProt Q9HAZ1)
T4 construct: purchased Ambit Biosciences (KINOMEscan)
Method: as §1, §2

[5] = biological target: T5, MST3 (Homo sapiens, UniProt Q9Y6E0); conditions: for % Competition: 10 µM
T5 construct: purchased Ambit Biosciences (KINOMEscan)
Method: as §1, §2

[6] = biological target: T6, NLK (Homo sapiens, UniProt Q9UBE8)
T6 construct: purchased Ambit Biosciences (KINOMEscan)
T6 sequence (Q9UBE8 1-527): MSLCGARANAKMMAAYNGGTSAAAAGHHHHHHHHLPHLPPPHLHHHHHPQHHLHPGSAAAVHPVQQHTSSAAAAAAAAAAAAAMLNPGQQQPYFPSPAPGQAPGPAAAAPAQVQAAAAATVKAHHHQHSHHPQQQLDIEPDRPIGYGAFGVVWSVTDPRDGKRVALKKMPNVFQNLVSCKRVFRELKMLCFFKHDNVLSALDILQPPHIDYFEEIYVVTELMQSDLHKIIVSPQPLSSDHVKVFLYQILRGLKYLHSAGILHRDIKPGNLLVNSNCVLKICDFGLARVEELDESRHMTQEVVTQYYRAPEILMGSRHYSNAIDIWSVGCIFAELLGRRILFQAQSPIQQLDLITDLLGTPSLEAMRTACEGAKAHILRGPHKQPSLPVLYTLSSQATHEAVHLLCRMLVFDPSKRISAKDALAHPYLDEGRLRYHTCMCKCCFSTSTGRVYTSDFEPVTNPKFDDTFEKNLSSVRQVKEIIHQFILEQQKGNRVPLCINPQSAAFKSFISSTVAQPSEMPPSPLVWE
Method: as §1, §2

[7] = biological target: T7, MEK6 (Homo sapiens, UniProt P52564)
T7 construct: purchased Ambit Biosciences (KINOMEscan)
T7 sequence (P52564 1-334): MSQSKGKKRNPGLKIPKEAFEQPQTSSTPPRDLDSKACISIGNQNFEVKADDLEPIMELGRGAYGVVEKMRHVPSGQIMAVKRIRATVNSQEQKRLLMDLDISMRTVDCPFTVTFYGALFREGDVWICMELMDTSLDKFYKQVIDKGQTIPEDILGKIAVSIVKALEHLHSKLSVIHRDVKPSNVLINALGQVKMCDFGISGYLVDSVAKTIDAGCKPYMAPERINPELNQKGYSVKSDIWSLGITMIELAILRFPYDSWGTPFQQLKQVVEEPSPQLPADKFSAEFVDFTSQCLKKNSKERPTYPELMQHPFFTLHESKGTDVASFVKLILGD
Method: as §1, §2

[8] = biological target: T8, LCK (Homo sapiens, UniProt P06239)
T8 construct: purchased Ambit Biosciences (KINOMEscan)
Method: as §1, §2

[9] = biological target: T9, ADCK3 (Homo sapiens, UniProt Q8NI60)
T9 construct: purchased Ambit Biosciences (KINOMEscan)
Method: as §1, §2

T9 sequence (Q8NI60 163-647): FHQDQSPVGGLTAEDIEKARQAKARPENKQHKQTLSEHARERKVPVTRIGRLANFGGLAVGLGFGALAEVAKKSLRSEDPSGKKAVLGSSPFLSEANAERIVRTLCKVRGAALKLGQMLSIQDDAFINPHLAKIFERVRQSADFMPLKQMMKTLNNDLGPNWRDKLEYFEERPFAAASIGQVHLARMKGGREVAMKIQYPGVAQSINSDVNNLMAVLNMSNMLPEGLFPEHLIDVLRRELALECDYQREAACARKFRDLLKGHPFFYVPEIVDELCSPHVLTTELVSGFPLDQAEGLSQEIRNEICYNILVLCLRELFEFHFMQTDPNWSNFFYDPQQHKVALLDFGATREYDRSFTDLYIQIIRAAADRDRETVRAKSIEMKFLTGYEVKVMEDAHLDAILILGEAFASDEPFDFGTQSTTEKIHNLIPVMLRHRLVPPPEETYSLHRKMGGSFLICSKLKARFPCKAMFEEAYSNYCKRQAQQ
T5 sequence (Q9Y6E0 whole entry): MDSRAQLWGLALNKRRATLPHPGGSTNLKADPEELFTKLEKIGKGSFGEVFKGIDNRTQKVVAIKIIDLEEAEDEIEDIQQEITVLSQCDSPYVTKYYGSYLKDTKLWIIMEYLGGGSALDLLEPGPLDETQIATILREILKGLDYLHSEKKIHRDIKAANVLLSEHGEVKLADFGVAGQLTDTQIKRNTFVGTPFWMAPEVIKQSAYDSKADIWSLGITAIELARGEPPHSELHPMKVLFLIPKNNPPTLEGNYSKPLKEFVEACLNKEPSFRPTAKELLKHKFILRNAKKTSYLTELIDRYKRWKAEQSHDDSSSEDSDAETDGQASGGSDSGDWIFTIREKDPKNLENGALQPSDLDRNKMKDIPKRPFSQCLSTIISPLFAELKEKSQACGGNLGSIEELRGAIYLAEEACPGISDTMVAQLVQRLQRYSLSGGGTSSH
T4 sequence (Q9HAZ1 whole entry): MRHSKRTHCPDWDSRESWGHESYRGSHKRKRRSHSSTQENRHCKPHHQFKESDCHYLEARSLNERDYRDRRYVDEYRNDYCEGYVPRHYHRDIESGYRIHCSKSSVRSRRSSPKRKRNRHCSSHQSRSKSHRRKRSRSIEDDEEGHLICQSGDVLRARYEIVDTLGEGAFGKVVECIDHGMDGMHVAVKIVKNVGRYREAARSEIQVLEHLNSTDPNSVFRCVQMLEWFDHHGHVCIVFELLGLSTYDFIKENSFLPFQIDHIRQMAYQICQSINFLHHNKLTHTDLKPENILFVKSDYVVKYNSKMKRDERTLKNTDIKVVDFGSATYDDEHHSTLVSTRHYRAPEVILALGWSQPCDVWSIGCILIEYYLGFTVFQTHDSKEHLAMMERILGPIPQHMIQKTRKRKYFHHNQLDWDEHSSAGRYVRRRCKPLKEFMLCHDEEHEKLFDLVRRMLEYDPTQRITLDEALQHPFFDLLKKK
T8 sequence (P06239 whole entry): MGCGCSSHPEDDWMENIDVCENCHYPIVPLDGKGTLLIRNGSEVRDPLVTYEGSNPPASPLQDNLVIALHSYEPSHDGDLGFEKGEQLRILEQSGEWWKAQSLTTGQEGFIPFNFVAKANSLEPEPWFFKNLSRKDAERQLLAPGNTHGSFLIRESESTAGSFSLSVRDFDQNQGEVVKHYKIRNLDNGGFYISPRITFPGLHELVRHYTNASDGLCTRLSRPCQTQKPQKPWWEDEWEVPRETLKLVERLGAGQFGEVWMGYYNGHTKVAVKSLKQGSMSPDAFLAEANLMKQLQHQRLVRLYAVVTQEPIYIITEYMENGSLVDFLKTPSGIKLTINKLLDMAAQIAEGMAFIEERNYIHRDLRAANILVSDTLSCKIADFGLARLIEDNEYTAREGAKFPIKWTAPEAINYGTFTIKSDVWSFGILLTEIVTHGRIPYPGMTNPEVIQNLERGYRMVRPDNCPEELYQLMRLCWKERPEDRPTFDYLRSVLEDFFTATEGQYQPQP
T3 sequence (Q9H2G2 whole entry): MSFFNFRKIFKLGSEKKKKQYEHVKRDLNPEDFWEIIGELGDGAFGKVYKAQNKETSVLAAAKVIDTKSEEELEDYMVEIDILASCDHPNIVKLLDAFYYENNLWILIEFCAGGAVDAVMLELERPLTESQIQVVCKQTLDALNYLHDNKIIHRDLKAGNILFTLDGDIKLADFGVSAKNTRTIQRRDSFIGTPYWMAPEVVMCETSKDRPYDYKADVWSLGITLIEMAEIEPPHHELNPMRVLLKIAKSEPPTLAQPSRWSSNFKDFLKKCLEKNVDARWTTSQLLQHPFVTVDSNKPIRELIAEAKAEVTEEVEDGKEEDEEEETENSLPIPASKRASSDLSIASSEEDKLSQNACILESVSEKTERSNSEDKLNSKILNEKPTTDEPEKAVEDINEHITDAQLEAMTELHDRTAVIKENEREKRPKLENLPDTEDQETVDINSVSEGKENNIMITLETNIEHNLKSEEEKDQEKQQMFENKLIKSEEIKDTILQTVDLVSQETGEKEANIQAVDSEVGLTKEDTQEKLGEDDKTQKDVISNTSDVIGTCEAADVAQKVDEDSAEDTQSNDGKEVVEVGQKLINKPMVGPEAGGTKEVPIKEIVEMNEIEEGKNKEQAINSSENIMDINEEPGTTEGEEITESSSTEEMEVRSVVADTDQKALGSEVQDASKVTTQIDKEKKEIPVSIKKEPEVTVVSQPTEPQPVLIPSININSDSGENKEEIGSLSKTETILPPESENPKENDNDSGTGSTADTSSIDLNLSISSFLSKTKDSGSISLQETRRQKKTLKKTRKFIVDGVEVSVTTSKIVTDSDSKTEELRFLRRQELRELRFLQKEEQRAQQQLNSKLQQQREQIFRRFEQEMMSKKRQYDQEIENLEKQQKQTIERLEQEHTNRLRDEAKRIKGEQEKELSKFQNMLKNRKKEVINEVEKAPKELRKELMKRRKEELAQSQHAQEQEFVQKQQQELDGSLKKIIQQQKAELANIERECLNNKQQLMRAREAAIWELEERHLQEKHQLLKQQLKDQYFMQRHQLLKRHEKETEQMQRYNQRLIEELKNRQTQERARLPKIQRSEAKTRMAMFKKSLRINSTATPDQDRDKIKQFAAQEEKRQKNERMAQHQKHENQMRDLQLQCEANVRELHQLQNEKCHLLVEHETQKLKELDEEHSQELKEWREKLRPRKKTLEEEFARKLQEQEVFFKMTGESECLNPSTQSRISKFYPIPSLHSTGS

- inhibition at 10 µM ([1]; EPHB3, 10 µM, read-out: % Competition): 82%
- % Competition [2]: 98%
- inhibition at 10 µM ([3]; SLK, 10 µM, read-out: % Competition): 80%
- inhibition at 10 µM ([4]; CLK4, 10 µM, read-out: % Competition): 88%
- % Competition [5]: 68%
- inhibition at 10 µM ([6]; NLK, 10 µM, read-out: % Competition): 98%
- inhibition at 10 µM ([7]; MEK6, 10 µM, read-out: % Competition): 66%
- inhibition at 10 µM ([8]; LCK, 10 µM, read-out: % Competition): 71%
- inhibition at 10 µM ([9]; ADCK3, 10 µM, read-out: % Competition): 83%
Structure (SMILES): Fc1ccc(-c2c(-c3ccncc3)[nH]c3nccnc23)cc1 [Compound 122]

Structure (SMILES): CC(O)CNc1cc(-c2[nH]c3cccnc3c2-c2ccc(F)cc2)ccn1 (stereo not drawn) [Compound 140]
- inhibition at 10 µM ([1]; read-out: % Competition): < 50%
- % Competition [2]: 84%
- inhibition at 10 µM ([3]; read-out: % Competition): < 50%
- inhibition at 10 µM ([4]; read-out: % Competition): < 50%
- % Competition [5]: <50%
- inhibition at 10 µM ([6]; read-out: % Competition): 91%
- inhibition at 10 µM ([7]; read-out: % Competition): < 50%
- inhibition at 10 µM ([8]; read-out: % Competition): < 50%
- inhibition at 10 µM ([9]; read-out: % Competition): 90%

- inhibition at 10 µM ([1]; EPHB3, compound concentration 10 uM, read-out: Percent Competition): 82%
- Percent Competition ([2]; compound concentration 10 uM): 98%
- inhibition at 10 µM ([3]; SLK, compound concentration 10 uM, read-out: Percent Competition): 80%
- inhibition at 10 µM ([4]; CLK4, compound concentration 10 uM, read-out: Percent Competition): 88%
- Percent Competition ([5]; compound concentration 10 uM): 68%
- inhibition at 10 µM ([6]; NLK, compound concentration 10 uM, read-out: Percent Competition): 98%
- inhibition at 10 µM ([7]; MEK6, compound concentration 10 uM, read-out: Percent Competition): 66%
- inhibition at 10 µM ([8]; LCK, compound concentration 10 uM, read-out: Percent Competition): 71%
- inhibition at 10 µM ([9]; ADCK3, compound concentration 10 uM, read-out: Percent Competition): 83%
Structure (SMILES): Fc1ccc(-c2c(-c3ccncc3)[nH]c3nccnc23)cc1 [RO1155697-000-005]
